Experimental data taken from ChEMBL document CHEMBL4765471, “1-Methyl-1H-pyrazole-5-carboxamide Derivatives Exhibit Unexpected Acute Mammalian Toxicity” (J Med Chem, 2021).

Assays:
[1] = Toxicity in rat FAO cells assessed as reduction in cellular respiration incubated over 1 hrs by extracellular flux analyzer based assay; assay type: cell-based
[2] = Toxicity in rat FAO cells assessed as reduction in cell proliferation incubated for 48 hrs by crystal violet staining based assay
[3] = Toxicity in human MCF-10A cells; assay type: cell-based
[4] = Inhibition of Haemonchus contortus by L4 development assay; assay type: functional
[5] = Selectivity index, ratio of IC50 for toxicity in rat FAO cells assessed as reduction in cellular respiration to IC50 for inhibition of Haemonchus contortus by L4 development assay
[6] = Toxicity in male Swiss mouse assessed as induction of reversible motor depression at 50 mg/kg, po; assay type: organism-based; conditions: in vivo
[7] = Toxicity in orally dosed Swiss mouse assessed as induction of observable clinical effects measured 2 to 4 days after dosing; assay type: organism-based; conditions: in vivo, po, time 2-4 day
[8] = Toxicity in female Swiss mouse assessed as induction of reversible motor depression at 30 mg/kg, po; assay type: organism-based; conditions: in vivo
[9] = Toxicity in Swiss mouse assessed as induction of reversible motor depression at 5 mg/kg, po measured at first 15 mins post dosing; assay type: organism-based; conditions: in vivo, 0.25 h
[10] = Toxicity in female Swiss mouse assessed as induction of reversible motor depression at 20 mg/kg, po; assay type: organism-based; conditions: in vivo
[11] = Toxicity in male Swiss mouse assessed as induction of reversible motor depression at 20 mg/kg, po; assay type: organism-based; conditions: in vivo

| SMILES | IC50 at 1 h [1] | IC50 at 48 h [2] | IC50 [3] | IC50 [4] | Ratio IC50 [5] | Activity [6] | MTD [7] | Activity [8] | Activity [9] | Activity [10] | Activity [11] |
| --- | --- | --- | --- | --- | --- | --- | --- | --- | --- | --- | --- |
| CCc1nn(C)c(C(=O)NCc2ccc(Oc3ccc(Cl)cc3)cc2)c1Cl | 510 nM | < 6000 nM | 8700 nM | 80 nM | 6 |  |  |  |  |  |  |
| Cc1ccc(Oc2ccc(CNC(=O)c3c(F)cnn3C)cc2)cc1 | 4300 nM | < 6000 nM | 13700 nM | 10 nM | 430 | Toxic | 20 mg/kg | Toxic |  |  |  |
| CCc1nc(-c2ccc(CNC(=O)c3ccnn3C)cc2)no1 | 1300 nM | < 6000 nM | > 100000 nM | 200 nM | 7 |  | 1 mg/kg |  | Toxic |  |  |
| CCc1nc(-c2ccc(CNC(=O)c3c(Cl)c(CC)nn3C)cc2)no1 | 160 nM | < 6000 nM | > 50000 nM | 2 nM | 80 |  |  |  |  |  |  |
| Cn1ncc(Cl)c1C(=O)NCc1ccc(-c2noc(C3CC3)n2)cc1 | 3730 nM | < 6000 nM | 24300 nM | 0.9 nM | 4144 |  | 1 mg/kg |  | Toxic |  |  |
| Cc1nn(C)c(C(=O)NCc2ccc(Oc3ccc(Cl)cc3)cc2)c1Cl | 1270 nM | < 6000 nM | 50000 nM | < 0.7 nM | 181 |  |  |  |  |  |  |
| Cn1ncc(Cl)c1C(=O)NCc1ccc(Oc2ccc(Cl)cc2)cc1 | 1700 nM | < 6000 nM | > 50000 nM | 1 nM | 1700 |  | 5 mg/kg |  |  | Toxic | Toxic |
| Cn1ncc(Cl)c1C(=O)NCc1ccc(Oc2ccc(Cl)nc2)cc1 | 1900 nM | < 6000 nM | > 50000 nM | 30 nM | 63 |  | 1 mg/kg |  | Toxic |  |  |
| Cc1nn(C)c(C(=O)NCc2ccc(Oc3ccc(Cl)nc3)cc2)c1Cl | 150 nM | < 6000 nM | > 50000 nM | 0.3 nM | 500 |  | 1 mg/kg |  | Toxic |  |  |
| CCc1nn(C)c(C(=O)NCc2ccc(Oc3ccc(C)cc3)cc2)c1Cl [TOLFENPYRAD] | 1100 nM | < 6000 nM | 33700 nM | 20 nM | 55 |  | 1 mg/kg |  | Toxic |  |  |
